Results reported in patent US20260297081A1, “COMPOUNDS AND METHODS OF TREATING CANCERS” (Cullgen Inc., priority 2023, published 2026).
pIC50: −log10 of the molar value.

How the values were obtained:
CDK4 = CDK4 (Homo sapiens, UniProt P11802+Q16531); assay: HiBiT detection of HiBiT-tagged CDK4 protein level in MCF7 cells, 16 hours (Table 8); format: cell-based; parameters: expressed in transfected cells; host or cells: MCF7; settings: MCF7 cells stably expressing HiBiT tagged target proteins; for activity at 0.01 µM: 10 nM, read-out: % CDK4 Relative Level (10 nM); for activity at 0.1 µM: 100 nM, read-out: % CDK4 Relative Level (100 nM)
Procedure: HiBiT detection system quantitatively measures total amounts of HiBiT-tagged proteins using a luminescent based method. MCF7 cells stably expressing HiBiT tagged target proteins were treated with heterobifunctional compounds at indicated concentrations for 16 hours, then lysed with Nano-Glo HiBiT Lytic detection reagents.

MCF7 cells = assay: Anti-proliferation (viability) of MCF7 cells (Table 7, FIG. 2B); format: cell-based; settings: Homo sapiens, MCF7, MCF7 cells, 3-6 days, 10-point serial dilution; read-out: GI IC50 in MCF-7

Chain of CDK4 (P11802 whole entry): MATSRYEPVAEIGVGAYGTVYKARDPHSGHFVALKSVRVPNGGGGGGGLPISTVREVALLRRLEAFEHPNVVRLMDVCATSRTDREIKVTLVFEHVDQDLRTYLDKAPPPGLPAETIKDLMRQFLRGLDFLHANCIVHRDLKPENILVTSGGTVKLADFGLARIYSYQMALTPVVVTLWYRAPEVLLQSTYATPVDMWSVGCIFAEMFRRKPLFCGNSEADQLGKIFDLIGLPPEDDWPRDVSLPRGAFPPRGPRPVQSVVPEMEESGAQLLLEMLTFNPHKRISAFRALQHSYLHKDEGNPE
Chain of CDK4 (P24385 whole entry partner): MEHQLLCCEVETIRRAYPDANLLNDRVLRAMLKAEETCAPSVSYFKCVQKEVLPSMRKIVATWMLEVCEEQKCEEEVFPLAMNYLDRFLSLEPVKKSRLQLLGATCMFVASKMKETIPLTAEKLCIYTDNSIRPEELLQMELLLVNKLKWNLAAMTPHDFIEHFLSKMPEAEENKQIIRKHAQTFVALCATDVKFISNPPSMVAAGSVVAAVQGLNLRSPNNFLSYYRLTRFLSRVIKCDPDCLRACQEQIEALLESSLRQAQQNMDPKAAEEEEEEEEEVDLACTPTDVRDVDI
Chain of CDK4 (Q16531 2-1140 limits assumed): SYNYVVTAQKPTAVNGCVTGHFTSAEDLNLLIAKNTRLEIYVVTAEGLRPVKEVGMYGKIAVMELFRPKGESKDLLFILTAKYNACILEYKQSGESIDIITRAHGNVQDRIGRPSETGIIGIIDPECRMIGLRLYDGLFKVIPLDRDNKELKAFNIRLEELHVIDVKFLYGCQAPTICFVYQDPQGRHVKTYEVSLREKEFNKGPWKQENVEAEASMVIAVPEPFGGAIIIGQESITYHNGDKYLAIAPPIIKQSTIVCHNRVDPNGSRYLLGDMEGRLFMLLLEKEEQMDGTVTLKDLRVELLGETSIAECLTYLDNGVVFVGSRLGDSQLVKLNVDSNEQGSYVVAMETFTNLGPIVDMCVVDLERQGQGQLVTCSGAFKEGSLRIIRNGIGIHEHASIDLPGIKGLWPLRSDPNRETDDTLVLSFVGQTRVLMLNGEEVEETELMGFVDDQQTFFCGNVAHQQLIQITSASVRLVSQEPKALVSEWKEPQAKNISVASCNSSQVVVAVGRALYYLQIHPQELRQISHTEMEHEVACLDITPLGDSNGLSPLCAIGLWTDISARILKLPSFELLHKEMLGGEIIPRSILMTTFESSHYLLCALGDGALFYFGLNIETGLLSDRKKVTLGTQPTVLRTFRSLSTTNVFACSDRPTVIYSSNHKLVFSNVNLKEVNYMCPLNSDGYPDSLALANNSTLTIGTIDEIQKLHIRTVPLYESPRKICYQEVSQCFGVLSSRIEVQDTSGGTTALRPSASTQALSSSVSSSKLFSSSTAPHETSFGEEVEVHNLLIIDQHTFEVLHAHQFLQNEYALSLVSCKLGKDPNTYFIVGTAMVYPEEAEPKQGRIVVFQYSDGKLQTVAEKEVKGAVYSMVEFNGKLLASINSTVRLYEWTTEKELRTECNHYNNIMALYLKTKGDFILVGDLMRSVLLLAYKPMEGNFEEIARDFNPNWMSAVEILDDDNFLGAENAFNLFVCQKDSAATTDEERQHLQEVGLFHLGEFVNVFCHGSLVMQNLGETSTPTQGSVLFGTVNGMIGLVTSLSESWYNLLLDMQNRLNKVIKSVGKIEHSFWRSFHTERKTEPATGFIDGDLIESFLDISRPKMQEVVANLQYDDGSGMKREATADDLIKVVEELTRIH

| Structure (SMILES) | activity at 0.01 µM (CDK4) [%] | activity at 0.1 µM (CDK4) [%] | pIC50 (MCF7 cells) |
| --- | --- | --- | --- |
| CNc1ccc(C(=O)Nc2ccc(N(C)C)nn2)c(NCCCCC(=O)N2CCN(Cc3ccc(Nc4ncc(F)c(-c5cc(F)c6nc(C)n(C(C)C)c6c5)n4)nc3)CC2)n1 [CPD-602, N-(6-(dimethylamino)pyridazin-3-yl)-2-((5-(4-((6-((5-fluoro-4-(4-fluoro-1-isopropyl-2-methyl-1H-benzo[d]imidazol-6-yl)pyrimidin-2-yl)amino)pyridin-3-yl)methyl)piperazin-1-yl)-5-oxopentyl)amino)-6-(methylamino)nicotinamide] | 55 to 85 | 55 to 85 | < 7.00 |
| CNc1ccc(C(=O)Nc2ccc(N(C)C)nn2)c(NCCCCCC(=O)N2CCN(Cc3ccc(Nc4ncc(F)c(-c5cc(F)c6nc(C)n(C(C)C)c6c5)n4)nc3)CC2)n1 [CPD-603, N-(6-(dimethylamino)pyridazin-3-yl)-2-((6-(4-((6-((5-fluoro-4-(4-fluoro-1-isopropyl-2-methyl-1H-benzo[d]imidazol-6-yl)pyrimidin-2-yl)amino)pyridin-3-yl)methyl)piperazin-1-yl)-6-oxohexyl)amino)-6-(methylamino)nicotinamide] | 55 to 85 | 55 to 85 | < 7.00 |
| CNc1ccc(C(=O)Nc2ccc(N(C)C)nn2)c(NCCOCCOCCC(=O)N2CCN(Cc3ccc(Nc4ncc(F)c(-c5cc(F)c6nc(C)n(C(C)C)c6c5)n4)nc3)CC2)n1 [CPD-607, N-(6-(dimethylamino)pyridazin-3-yl)-2-((2-(2-(3-(4-((6-((5-fluoro-4-(4-fluoro-1-isopropyl-2-methyl-1H-benzo[d]imidazol-6-yl)pyrimidin-2-yl)amino)pyridin-3-yl)methyl)piperazin-1-yl)-3-oxopropoxy)ethoxy)ethyl)amino)-6-(methylamino)nicotinamide] | > 85 | > 85 | < 7.00 |
| CNc1ccc(C(=O)Nc2ccc(N(C)C)nn2)c(NCCNC(=O)CN2CCN(Cc3ccc(Nc4ncc(F)c(-c5cc(F)c6nc(C)n(C(C)C)c6c5)n4)nc3)CC2)n1 [CPD-608, N-(6-(dimethylamino)pyridazin-3-yl)-2-((2-(2-(4-((6-((5-fluoro-4-(4-fluoro-1-isopropyl-2-methyl-1H-benzo[d]imidazol-6-yl)pyrimidin-2-yl)amino)pyridin-3-yl)methyl)piperazin-1-yl)acetamido)ethyl)amino)-6-(methylamino)nicotinamide] | > 85 | 55 to 85 | < 7.00 |
| CNc1ccc(C(=O)Nc2ccc(N(C)C)nn2)c(NCCCC(=O)N2CCN(c3ccc(Nc4ncc5cc(C(=O)N(C)C)n(C6CCCC6)c5n4)nc3)CC2)n1 [CPD-617, 7-cyclopentyl-2-((5-(4-(4-((3-((6-(dimethylamino)pyridazin-3-yl)carbamoyl)-6-(methylamino)pyridin-2-yl)amino)butanoyl)piperazin-1-yl)pyridin-2-yl)amino)-N,N-dimethyl-7H-pyrrolo[2,3-d]pyrimidine-6-carboxamide] | > 85 | > 85 | < 7.00 |
| CNc1ccc(C(=O)Nc2ccc(N(C)C)nn2)c(NCCCCC(=O)N2CCN(c3ccc(Nc4ncc5cc(C(=O)N(C)C)n(C6CCCC6)c5n4)nc3)CC2)n1 [CPD-618, 7-cyclopentyl-2-((5-(4-(5-((3-((6-(dimethylamino)pyridazin-3-yl)carbamoyl)-6-(methylamino)pyridin-2-yl)amino)pentanoyl)piperazin-1-yl)pyridin-2-yl)amino)-N,N-dimethyl-7H-pyrrolo[2,3-d]pyrimidine-6-carboxamide] | > 85 | 55 to 85 | < 7.00 |
| CNc1ccc(C(=O)Nc2ccc(N(C)C)nn2)c(NCCCCCCC(=O)N2CCN(c3ccc(Nc4ncc5cc(C(=O)N(C)C)n(C6CCCC6)c5n4)nc3)CC2)n1 [CPD-620, 7-cyclopentyl-2-((5-(4-(7-((3-((6-(dimethylamino)pyridazin-3-yl)carbamoyl)-6-(methylamino)pyridin-2-yl)amino)heptanoyl)piperazin-1-yl)pyridin-2-yl)amino)-N,N-dimethyl-7H-pyrrolo[2,3-d]pyrimidine-6-carboxamide] | 55 to 85 | 55 to 85 | < 7.00 |

Further lines, results first:

| activity at 0.01 µM (CDK4) [%] | activity at 0.1 µM (CDK4) [%] | pIC50 (MCF7 cells) | Structure (SMILES) |
| --- | --- | --- | --- |
| 55 to 85 | 55 to 85 | < 7.00 | CNc1ccc(C(=O)Nc2ccc(N(C)C)nn2)c(NCCCCCCCC(=O)N2CCN(c3ccc(Nc4ncc5cc(C(=O)N(C)C)n(C6CCCC6)c5n4)nc3)CC2)n1 [CPD-621, 7-cyclopentyl-2-((5-(4-(8-((3-((6-(dimethylamino)pyridazin-3-yl)carbamoyl)-6-(methylamino)pyridin-2-yl)amino)octanoyl)piperazin-1-yl)pyridin-2-yl)amino)-N,N-dimethyl-7H-pyrrolo[2,3-d]pyrimidine-6-carboxamide] |
| 55 to 85 | 55 to 85 | < 7.00 | CNc1ccc(C(=O)Nc2ccc(N(C)C)nn2)c(NCCOCCC(=O)N2CCN(c3ccc(Nc4ncc5cc(C(=O)N(C)C)n(C6CCCC6)c5n4)nc3)CC2)n1 [CPD-622, 7-cyclopentyl-2-((5-(4-(3-(2-((3-((6-(dimethylamino)pyridazin-3-yl)carbamoyl)-6-(methylamino)pyridin-2-yl)amino)ethoxy)propanoyl)piperazin-1-yl)pyridin-2-yl)amino)-N,N-dimethyl-7H-pyrrolo[2,3-d]pyrimidine-6-carboxamide] |
| 55 to 85 | 55 to 85 | < 7.00 | CNc1ccc(C(=O)Nc2ccc(N(C)C)nn2)c(NCCCNC(=O)CN2CCN(c3ccc(Nc4ncc5cc(C(=O)N(C)C)n(C6CCCC6)c5n4)nc3)CC2)n1 [CPD-625, 7-cyclopentyl-2-((5-(4-(2-((3-((3-((6-(dimethylamino)pyridazin-3-yl)carbamoyl)-6-(methylamino)pyridin-2-yl)amino)propyl)amino)-2-oxoethyl)piperazin-1-yl)pyridin-2-yl)amino)-N,N-dimethyl-7H-pyrrolo[2,3-d]pyrimidine-6-carboxamide] |
| 55 to 85 | 55 to 85 | < 7.00 | CNc1ccc(C(=O)Nc2ccc(N(C)C)nn2)c(NCCCCNC(=O)CN2CCN(c3ccc(Nc4ncc5cc(C(=O)N(C)C)n(C6CCCC6)c5n4)nc3)CC2)n1 [CPD-626, 7-cyclopentyl-2-((5-(4-(2-((4-((3-((6-(dimethylamino)pyridazin-3-yl)carbamoyl)-6-(methylamino)pyridin-2-yl)amino)butyl)amino)-2-oxoethyl)piperazin-1-yl)pyridin-2-yl)amino)-N,N-dimethyl-7H-pyrrolo[2,3-d]pyrimidine-6-carboxamide] |
| 55 to 85 | 55 to 85 | < 7.00 | CNc1ccc(C(=O)Nc2ccc(N(C)C)nn2)c(NCCCCCNC(=O)CN2CCN(c3ccc(Nc4ncc5cc(C(=O)N(C)C)n(C6CCCC6)c5n4)nc3)CC2)n1 [CPD-627, 7-cyclopentyl-2-((5-(4-(2-((5-((3-((6-(dimethylamino)pyridazin-3-yl)carbamoyl)-6-(methylamino)pyridin-2-yl)amino)pentyl)amino)-2-oxoethyl)piperazin-1-yl)pyridin-2-yl)amino)-N,N-dimethyl-7H-pyrrolo[2,3-d]pyrimidine-6-carboxamide] |
